Measured values reported in US11166958B2, “4-pyrazin-2-ylmethyl-morpholine derivatives and the use thereof as medicament” (Boehringer Ingelheim International GmbH, priority 2018, dated 2021).

Assays:
Nav1.6 channel = Nav1.6 channel (Homo sapiens (Human), UniProt Q9UQD0); test: Nav1.6 inhibition, IonWorks Quattro electrophysiology; format: cell-based; conditions: for inhibition at 1 µM / inhibition at 5 µM: normalized to vehicle (0%) and maximal inhibition control (100%)
Protocol: IonWorks Quattro electrophysiological platform
The compounds were prepared in DMSO at 300× the final assay concentrations of 1 and 5 μM.
The 300× DMSO stock solutions were transferred into assay plates where 2 μl per well of each 300× stock solution were placed. All assay plates were stored at −80° C. until the day of assay.
On the day of the assay, the appropriate assay plate was thawed at room temperature, centrifuged, and 198 μl of external recording solution was added and mixed thoroughly. This provided a 1:100 dilution. A further 1:3 dilution occurred upon addition to the cells in the IonWorks Quattro electrophysiological platform, giving a 1:300 dilution in total. On each assay plate, at least 8 wells were reserved for vehicle control (0.3% DMSO) and at least 8 wells for each positive control specific to the cell line tested. The positive controls were tested at a maximal blocking and an approximate IC50 concentration. As positive control Lidocaine at concentrations of 30 and 1000 μM was used.
The solutions for recording Nav1.6 currents were as follows:
Amphotericin B was used to obtain electrical access to the cell interior at a final concentration of 200 μg/ml in internal recording solution.
State-dependent inhibition: Sodium channels when held at depolarized potential or long test pulse, the channels open and inactivate and then stay inactivated until the membrane potential is stepped back to hyperpolarized potentials, when the inactivated channels recover from inactivation into closed state.
Cells were held at −120 mV. In order to completely inactivate the sodium channels (pulse 1), the cells were pulsed to +0 mV for 2500 ms and stepped back to −120 mV for 10 ms (to completely recover from inactivation, however channels that had drugs bound to them will not recover from inactivation) before stepping to +0 mV for 20 ms (pulse 2).
Assay Control Results Both the positive and vehicle control data associated with each cell line assayed are shown below as an example. The mean is shown for each positive and negative control as solid symbol with the total number of individual well replicates given next to the solid symbol. In addition, the individual data of each well are shown on the graph as open symbols so that the variation about the mean value can be readily assessed.
Shown below are the assay controls for the Nav1.6 IonWorks Quattro assay.
Tables 3 and 4 show the normalized percentage inhibition of Nav1.6 channel. […] (see also the figure Assay Control Results above).

NMDA NR1/NR2B receptor = NMDA NR1/NR2B receptor (Homo sapiens (Human), UniProt Q13224); test: In vitro NMDA NR1/NR2B cell assay (FLIPR, intracellular calcium induced by glycine/glutamate); format: cell-based; conditions: HEK293 NR1/NR2B, 20 μM glycine / 1 μM glutamate, read-out: In vitro NR2B affinity, IC50
Protocol: A human HEK293 cell line with tetracyclin-inducible expression of NMDA NR1/NR2B receptor was used as a test system for compound efficacy and potency. The cell line was purchased from ChanTest, Catalog #CT6121. Compound activity was determined by measuring the effect of compounds on intracellular calcium concentration induced by glycine/glutamate agonism in a FLIPRtetra system (Molecular Devices).
The cells were obtained as frozen cells in cryo-vials and stored until use at −150° C. Cells were grown in culture medium (DMEM/F12, 10% FBS, 5 μg/mL Blasticidin, 150 μg/mL Zeozin, 500 μg/mL Geneticin). […] For sub-culturing the cells were detached from flasks by Versene. For the assay, cells were detached, washed twice with induction medium (DMEM/F12 without glutamine, 10% FBS, 2 μg/mL Tetracycline, 2 mM Ketamine) and seeded to 384 well pure coat amine plates (Becton Dickinson, 50000 cells per well in 50 μl) 48 h prior to assay in induction medium.
The test compounds were dissolved in 100% DMSO at a concentration of 10 mM and in a first step diluted in DMSO to a concentration of 5 mM, followed by serial dilution steps in 100% DMSO. Dilution factor and number of dilution steps may vary according to needs. Typically 8 different concentrations by 1:5 dilutions were prepared in duplicate, further intermediate dilutions (1:37.5) of the substances were carried out with aqueous assay buffer (137 mM NaCl, 4 mM KCl, 1.8 mM CaCl2), 10 mM HEPES, 10 mM Glucose, pH 7.4) resulting in a compound concentration 3 times above the final test concentration and DMSO at 2.7% resulting in 0.9% final DMSO concentration in the assay.
At the assay day cells were washed 3× with assay buffer (as described above), 10 μL buffer remained in the wells after washing. 10 μL Ca kit loading buffer (AAT Bioquest; prepared from the kit containing the following components: Component A: Fluo-8 NW dissolved in 200 μL DMSO and 20 μl of this solution are mixed with 10 ml buffer prepared out of component B and C, Component B: 10× Pluronic® F127 Plus diluted 1:10 in component C, Component C: HHBS (Hanks with 20 mM Hepes) was added to the cells and the plates were incubated with lid for 60 minutes at room temperature. 20 μl assay buffer containing 60 μM glycine (20 μM final) and 3 μM glutamate (1 μM final) was added to column 1-23, column 24 got assay buffer without glycine/glutamate to serve as negative unstimulated control. Fluorescence (indicating the calcium influx as a result of the NR1/NR2B ion channel activation) was read on the FLIPRtetra device for 60 seconds to monitor the glutamate induced effects. After 2 minutes 20 μL of compound dilution prepared as described above or controls (row 1-22) in assay buffer were carefully added to the wells. […] The average of 2 measurements at 5 minutes and 5 min 10 seconds after compound addition is calculated and further used for IC50 calculations. Each assay microtiter compound dilution plate contained wells (in column 23 or 24) with DMSO controls instead of compound as controls for glycine/glutamate induced fluorescence (high controls) and wells with 1 μM of a reference NR2B NAM as low controls (Compound 22; reference: Layton, Mark E et al, ACS Chemical Neuroscience 2011, 2(7), 352-362).
The output file of the reader contains the well number and measured average fluorescence units. For data evaluation and calculation, the measurement of the low control was set as 0% control and the measurement of the high control was set as 100% control. The IC50 values were calculated using the standard 4 parameter logistic regression formula. Calculation: [y=(a−d)/(1+(x/c)^b)+d], a=low value, d=high value; x=conc M; c=IC50 M; b=slope.

Nav1.6 channel, sequence (Q9UQD0 whole entry): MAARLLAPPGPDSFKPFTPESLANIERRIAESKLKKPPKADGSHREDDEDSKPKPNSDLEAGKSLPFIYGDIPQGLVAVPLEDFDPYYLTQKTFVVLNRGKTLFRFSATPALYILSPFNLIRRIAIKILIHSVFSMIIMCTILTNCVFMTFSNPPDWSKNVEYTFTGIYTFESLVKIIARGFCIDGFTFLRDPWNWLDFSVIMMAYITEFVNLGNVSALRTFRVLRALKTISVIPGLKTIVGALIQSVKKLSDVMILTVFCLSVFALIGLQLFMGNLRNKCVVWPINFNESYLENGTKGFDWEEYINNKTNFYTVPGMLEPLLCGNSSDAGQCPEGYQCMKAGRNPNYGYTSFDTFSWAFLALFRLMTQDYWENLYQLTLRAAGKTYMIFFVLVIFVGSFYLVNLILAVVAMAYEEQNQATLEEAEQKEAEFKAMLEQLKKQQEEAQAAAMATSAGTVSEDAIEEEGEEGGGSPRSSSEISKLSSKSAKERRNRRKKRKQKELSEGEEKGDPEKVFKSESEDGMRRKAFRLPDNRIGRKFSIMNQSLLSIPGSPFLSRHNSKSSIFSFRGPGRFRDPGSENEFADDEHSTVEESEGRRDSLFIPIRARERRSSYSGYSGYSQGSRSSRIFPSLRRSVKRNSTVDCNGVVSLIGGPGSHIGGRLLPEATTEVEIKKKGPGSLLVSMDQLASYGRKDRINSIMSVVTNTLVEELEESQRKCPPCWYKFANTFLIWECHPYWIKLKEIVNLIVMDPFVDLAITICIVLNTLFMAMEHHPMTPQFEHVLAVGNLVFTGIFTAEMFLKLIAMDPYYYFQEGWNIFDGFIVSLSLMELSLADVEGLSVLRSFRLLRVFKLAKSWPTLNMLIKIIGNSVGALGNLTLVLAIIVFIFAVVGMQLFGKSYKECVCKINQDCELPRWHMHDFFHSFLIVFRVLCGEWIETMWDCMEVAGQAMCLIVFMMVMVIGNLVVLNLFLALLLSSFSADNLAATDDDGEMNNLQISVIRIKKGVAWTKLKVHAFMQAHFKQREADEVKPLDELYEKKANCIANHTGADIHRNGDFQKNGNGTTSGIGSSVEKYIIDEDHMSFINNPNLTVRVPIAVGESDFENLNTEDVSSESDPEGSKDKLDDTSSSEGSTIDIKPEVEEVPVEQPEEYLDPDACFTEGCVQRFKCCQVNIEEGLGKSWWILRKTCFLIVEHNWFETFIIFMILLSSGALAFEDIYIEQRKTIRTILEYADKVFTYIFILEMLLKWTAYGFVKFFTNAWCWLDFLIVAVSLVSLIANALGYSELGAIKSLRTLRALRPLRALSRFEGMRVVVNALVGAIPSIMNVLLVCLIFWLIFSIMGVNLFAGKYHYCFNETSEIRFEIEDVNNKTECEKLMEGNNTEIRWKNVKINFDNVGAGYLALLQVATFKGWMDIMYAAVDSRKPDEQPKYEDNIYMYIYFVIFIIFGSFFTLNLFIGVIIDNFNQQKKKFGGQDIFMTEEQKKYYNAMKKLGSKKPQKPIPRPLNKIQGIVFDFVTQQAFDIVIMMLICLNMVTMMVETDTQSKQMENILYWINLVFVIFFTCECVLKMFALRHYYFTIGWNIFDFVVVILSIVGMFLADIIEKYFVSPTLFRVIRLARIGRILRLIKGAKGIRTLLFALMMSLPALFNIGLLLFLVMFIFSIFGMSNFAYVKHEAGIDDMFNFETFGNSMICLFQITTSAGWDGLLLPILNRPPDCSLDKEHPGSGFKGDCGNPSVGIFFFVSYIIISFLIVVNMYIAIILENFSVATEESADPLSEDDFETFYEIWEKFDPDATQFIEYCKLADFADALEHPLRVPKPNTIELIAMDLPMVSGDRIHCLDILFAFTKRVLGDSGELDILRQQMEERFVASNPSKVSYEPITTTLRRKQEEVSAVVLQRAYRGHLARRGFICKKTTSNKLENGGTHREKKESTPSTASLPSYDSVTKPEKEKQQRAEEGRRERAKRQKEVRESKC
NMDA NR1/NR2B receptor, sequence (Q13224 27-1484, other chains not shown): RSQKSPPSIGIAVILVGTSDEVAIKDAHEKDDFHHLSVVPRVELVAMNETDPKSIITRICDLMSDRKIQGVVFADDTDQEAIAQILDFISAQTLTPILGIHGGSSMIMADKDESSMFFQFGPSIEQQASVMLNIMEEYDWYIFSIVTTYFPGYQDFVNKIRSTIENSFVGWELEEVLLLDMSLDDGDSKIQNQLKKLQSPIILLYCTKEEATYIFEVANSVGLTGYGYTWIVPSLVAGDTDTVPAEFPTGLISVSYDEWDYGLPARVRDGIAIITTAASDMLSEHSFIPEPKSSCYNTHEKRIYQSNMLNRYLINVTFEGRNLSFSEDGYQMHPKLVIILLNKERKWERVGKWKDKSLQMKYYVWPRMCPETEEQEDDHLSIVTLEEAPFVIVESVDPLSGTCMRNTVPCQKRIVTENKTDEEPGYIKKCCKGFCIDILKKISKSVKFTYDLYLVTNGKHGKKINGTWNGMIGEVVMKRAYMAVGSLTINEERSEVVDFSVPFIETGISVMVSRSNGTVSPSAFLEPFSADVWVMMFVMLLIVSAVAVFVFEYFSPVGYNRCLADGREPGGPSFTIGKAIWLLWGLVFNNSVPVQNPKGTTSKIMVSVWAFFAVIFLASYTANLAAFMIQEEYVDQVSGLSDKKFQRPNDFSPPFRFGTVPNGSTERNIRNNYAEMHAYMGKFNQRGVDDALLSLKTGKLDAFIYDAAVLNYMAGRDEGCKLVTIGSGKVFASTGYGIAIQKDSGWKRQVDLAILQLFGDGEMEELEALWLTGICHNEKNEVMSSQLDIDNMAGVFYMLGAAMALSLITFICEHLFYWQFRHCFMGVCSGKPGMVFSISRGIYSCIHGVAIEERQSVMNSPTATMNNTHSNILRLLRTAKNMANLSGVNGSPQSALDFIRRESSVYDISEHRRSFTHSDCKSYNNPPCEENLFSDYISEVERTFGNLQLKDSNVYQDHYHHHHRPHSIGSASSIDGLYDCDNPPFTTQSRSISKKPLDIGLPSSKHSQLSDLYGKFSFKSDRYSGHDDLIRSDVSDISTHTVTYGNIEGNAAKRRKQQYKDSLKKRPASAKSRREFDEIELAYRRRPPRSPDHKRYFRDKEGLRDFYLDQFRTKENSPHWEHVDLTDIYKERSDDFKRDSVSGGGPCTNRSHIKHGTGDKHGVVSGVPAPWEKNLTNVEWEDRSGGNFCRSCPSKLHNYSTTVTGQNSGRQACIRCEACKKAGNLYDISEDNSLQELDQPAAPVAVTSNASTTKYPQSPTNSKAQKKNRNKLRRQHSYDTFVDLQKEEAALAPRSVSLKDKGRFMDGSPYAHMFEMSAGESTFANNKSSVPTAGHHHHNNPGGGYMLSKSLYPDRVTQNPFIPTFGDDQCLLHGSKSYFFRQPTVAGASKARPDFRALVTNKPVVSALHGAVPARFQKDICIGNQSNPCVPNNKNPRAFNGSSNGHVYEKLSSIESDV

Compound | inhibition at 1 µM (Nav1.6 channel) [%] | inhibition at 5 µM (Nav1.6 channel) [%] | IC50 (NMDA NR1/NR2B receptor) [nM] | inhibition of the Nav 1.6 channel (Nav1.6 channel; at 5 μM)
CNC(=O)[C@@H]1CN(Cc2cnc(Oc3ccc(F)cc3)cn2)CCO1 [Example 1] | -9 | 0.5 | 968 | –
CNC(=O)[C@@H]1CN(Cc2cnc(Oc3ccc(C)cc3C)cn2)CCO1 [Example 4] | 3.4 | 5 | 1200 | –
CNC(=O)[C@@H]1CN(Cc2cnc(Oc3ccc(Cl)cc3)cn2)CCO1 [Example 7] | -9 | -15 | 1000 | not showing any significant inhibition
CNC(=O)[C@@H]1CN(Cc2cnc(Oc3ccc(F)cc3C)cn2)CCO1 [Example 8] | 3 | 1.1 | 856 | –
CCNC(=O)[C@@H]1CN(Cc2cnc(Oc3ccccc3Cl)cn2)CCO1 [Example 33] | -10.5 | -6.6 | 807 | –

Now those with a lower IC50 (NMDA NR1/NR2B receptor), led by results:

inhibition at 1 µM (Nav1.6 channel) [%] | inhibition at 5 µM (Nav1.6 channel) [%] | IC50 (NMDA NR1/NR2B receptor) [nM] | inhibition of the Nav 1.6 channel (Nav1.6 channel; at 5 μM) | Compound
-4.4 | -4 | 123 | – | CNC(=O)[C@@H]1CN(Cc2cnc(Oc3ccc(C)cc3F)cn2)CCO1 [Example 2]
4.6 | 6.8 | 690 | – | CNC(=O)[C@@H]1CN(Cc2cnc(Oc3ccc(C)cc3)cn2)CCO1 [Example 3]
-3.9 | 3.7 | 110 | – | CNC(=O)[C@@H]1CN(Cc2cnc(Oc3ccc(Cl)cc3F)cn2)CCO1 [Example 5]
5.6 | 0.2 | 87 | – | CNC(=O)[C@@H]1CN(Cc2cnc(Oc3ccc(F)cc3F)cn2)CCO1 [Example 6]
0 | 4.6 | 210 | – | CNC(=O)[C@@H]1CN(Cc2cnc(Oc3ccccc3F)cn2)CCO1 [Example 9]
-5 | -10 | 222 | – | CNC(=O)[C@@H]1CN(Cc2cnc(Oc3ccccc3Cl)cn2)CCO1 [Example 18]
-13.4 | -9.4 | 595 | – | CCNC(=O)[C@@H]1CN(Cc2cnc(Oc3ccc(F)cc3F)cn2)CCO1 [Example 30]
-5.8 | -7 | 524 | – | CCNC(=O)[C@@H]1CN(Cc2cnc(Oc3ccc(C)cc3F)cn2)CCO1 [Example 31]
